Laboratory results reported in paper PMC8300687, “A Fine-Tuned Lipophilicity/Hydrophilicity Ratio Governs Antibacterial Potency and Selectivity of Bifurcated Halogen Bond-Forming NBTIs” (Antibiotics, 2021).
In brackets after ≈: the same amount, converted by molar mass. Like-named read-outs stand apart in the source and are kept apart here.

Key:
M. avium = test: MIC, M. avium; type: cell-based
Protocol: (§1) Antimicrobial testing was carried out by the broth microdilution method in 96-well plate format following the Clinical and Laboratory Standards Institute (CLSI) guidelines and European Committee on Antimicrobial Susceptibility Testing (EUCAST) recommendations. Bacterial suspension of specific bacterial strain equivalent to 0.5 McFarland turbidity standard was diluted with cation-adjusted Mueller Hinton broth with TES (Thermo Fisher Diagnostic, Landsmeer, The Netherlands), to obtain a final inoculum of 10^5 CFU/mL. Compounds dissolved in DMSO and inoculum were mixed together and incubated for 18–20 h at 35 °C. Suspensions of Mycobacterium sp. were prepared into a tube of Middelbrook 7H9 broth supplemented with 5% OADC (Thermo Scientific, Trek Diagnostic Systems, West Sussex, UK) and incubated for at least 10 days. After incubation the minimal inhibitory concentration (MIC) values were determined by visual inspection as the lowest dilution of compounds showing no turbidity. Tetracycline was used as a positive control on every assay plate.

S. aureus Topo IV = molecular target: T1, S. aureus Topo IV (Staphylococcus aureus, UniProt Q2FYS4); test: biochemical; details: mean of two to four measurements; read-out: Topoisomerase IV IC50 S. aureus
T1 construct: purchased Inspiralis (Norwich, UK)
Protocol: (§2) A Topo IV Relaxation High Throughput Plate assay kit, purchased from Inspiralis (Norwich. UK) was used to determine IC50 values of compounds on S. aureus and E. coli. […] Biotinylated oligonucleotide in wash buffer was immobilized onto the wells, and the excess oligonucleotide was washed off with wash buffer and ultrapure water. 1.5 U of S. aureus or E. coli […] enzyme was incubated together with 0.75 μg of supercoiled pNO1 plasmid as a substrate in the presence of 3 μL inhibitor solution in 10% DMSO and 0.008% Tween 20 at 37 °C for 30 min in a final reaction volume of 30 μL in dilution buffer (50 mM Tris-HCl (pH 7.5), 1 mM DTT, 1 mM EDTA, 40% (w/v) glycerol for S. aureus and 40 mM HEPES, KOH (pH 7.6), 100 mM potassium glutamate, 1 mM DTT, 1 mM EDTA, and 40% (v/v) glycerol for E. coli). The reactions were stopped by adding the TF buffer (50 mM NaOAc (pH 4.7), 50 mM NaCl, and 50 mM MgCl2) to allow the triplex formation (biotin-oligonucleotide-plasmid) for additional 30 min. Afterward, the unbound plasmid was washed off using TF buffer, and the solution of Promega Diamond dye in T10 buffer (10 mM Tris-HCl (pH 8.0), 1 mM EDTA) was added. […] IC50 value represents the mean of two to four independent measurements.

E. coli N43 (CGSC# 5583) = test: MIC broth microdilution, E. coli N43; type: cell-based; details: for MIC: Escherichia coli
Protocol: as §1

MRSA (QA-11.4) = test: MIC broth microdilution, MRSA QA-11.4; type: cell-based, methicillin-resistant S. aureus; details: Staphylococcus aureus, 20 h, read-out: MIC MRSA (QA-11.4)
Protocol: as §1

PAMPA permeability = details: for Papp at 4 h: PAMPA; for PAMPA permeability classification [low/high]: relative to reference drugs
Protocol: Prior to the measurements of solubility and permeability isocratic HPLC methods were developed. […] The individual method parameters for each compound are given in the Supplementary Materials Table S1.
A 96-well precoated three-layer PAMPA plates (Corning® Gentest™ Pre-coated PAMPA Plate System, Corning, NY, USA) were used according to the manufacturer’s instructions and as described previously with 300 µL of the donor solutions in the bottom compartment and 200 µL of the acceptor solution (pH 7.4 PBS) in the upper compartment at 37 °C and a 4-h incubation time. The initial and end donor solutions were injected at a 5 µL injection volume. The initial donor solutions were also diluted 100-fold and injected at a 100 µL injection volume to serve as external references for the end acceptor solutions which were injected at the same injection volume. The permeability calculations were made with a manufacturer-provided Excel spreadsheet directly from the measured peak areas accounting for the relevant dilutions and injection volumes.

S. pneumoniae (QA-10/02) = test: MIC broth microdilution, S. pneumoniae; type: cell-based; details: Streptococcus pneumoniae
Protocol: as §1

[1] = system: S. alachua RDK 030c (QA-1482/04); test: MIC broth microdilution, S. alachua; type: cell-based
Protocol: as §1

E. coli (QA-11.8) = test: MIC broth microdilution, E. coli QA-11.8; type: cell-based
Protocol: as §1

[2] = system: E. faecalis DRK 057 (ATCC 29212); test: MIC broth microdilution, E. faecalis; type: cell-based
Protocol: as §1

[3] = system: S. agalactiae RDK 047 (QA-990/02); test: MIC broth microdilution, S. agalactiae; type: cell-based
Protocol: as §1

E. coli Topo IV = molecular target: T2, E. coli Topo IV (Escherichia coli, UniProt P0AFI2); test: Topo IV Relaxation High Throughput Plate assay, E. coli; type: biochemical; details: for LE Topo IV E. coli: LE = (1.37/HA) × pIC50
T2 construct: purchased Inspiralis (Norwich, UK)
Protocol: as §2

HUVEC = test: Metabolic activity assessment (cytotoxicity), HUVEC; type: cell-based; details: Homo sapiens, 72 h, metabolic activity after 72 h treatment
Protocol: Cells of the HepG2 line (ATCC® HB-8065™) and HUVEC (ATCC® CRL-1730™) were cultured in Dulbecco’s Modified Eagle Medium (DMEM; Sigma-Aldrich, St. Louis, MO, USA) supplemented with 10% heat-deactivated FBS (Gibco, Grand Island, NE, USA), 2 mM L-glutamine, 100 U/mL penicillin, 100 μg/mL streptomycin (all from Sigma-Aldrich, St. Louis, MO, USA) in a humidified chamber at 37 °C and 5% CO2. The experiments were carried out on passages 7–9 for both cell lines. The tested compounds were dissolved in DMSO and further diluted in culture medium to a desired final concentration. Cells were seeded into 96-well plates at 8 × 10^4 cells/mL (100 μL/well) and incubated for 24 h to attach onto the wells. Cells were treated with 1 μM and 50 μM of each compound of interest or corresponding vehicle as control. […] The metabolic activity was assessed after 72 h treatment using the CellTiter 96 Aqueous One Solution Cell Proliferation Assay (Promega, Madison, WI, USA), in accordance with the manufacturer’s instructions. The absorbance was measured at 492 nm on an automated microplate reader BioTek Synergy HT (BioTek Instruments, Inc., Winooski, VT, USA). Data are presented as the percentage of metabolic activity of control cells stimulated with vehicle or as IC50 value (mean ± SD) from two independent experiments, each conducted in duplicate or triplicate. IC50 values were calculated by a non-linear regression model using Graph Pad Prism 7 software.

[4] = read-out: E. coli N43 MIC in molar
[5] = read-out: MIC E. coli N43 (CGSC# 5583)
[6] = Mycobacterium avium; read-out: MIC M. avium
[7] = Salmonella; read-out: MIC S. alachua RDK 030c (QA-1482/04)
[8] = Escherichia coli, 20 h; read-out: MIC E. coli (QA-11.8)
[9] = Enterococcus faecalis, ATCC29212; read-out: MIC E. faecalis DRK 057 (ATCC 29212)
[10] = Streptococcus agalactiae; read-out: MIC S. agalactiae RDK 047 (QA-990/02)
[11] = mean of two to four measurements, read-out: Topoisomerase IV IC50 E. coli

T2 sequence (P0AFI2 whole entry): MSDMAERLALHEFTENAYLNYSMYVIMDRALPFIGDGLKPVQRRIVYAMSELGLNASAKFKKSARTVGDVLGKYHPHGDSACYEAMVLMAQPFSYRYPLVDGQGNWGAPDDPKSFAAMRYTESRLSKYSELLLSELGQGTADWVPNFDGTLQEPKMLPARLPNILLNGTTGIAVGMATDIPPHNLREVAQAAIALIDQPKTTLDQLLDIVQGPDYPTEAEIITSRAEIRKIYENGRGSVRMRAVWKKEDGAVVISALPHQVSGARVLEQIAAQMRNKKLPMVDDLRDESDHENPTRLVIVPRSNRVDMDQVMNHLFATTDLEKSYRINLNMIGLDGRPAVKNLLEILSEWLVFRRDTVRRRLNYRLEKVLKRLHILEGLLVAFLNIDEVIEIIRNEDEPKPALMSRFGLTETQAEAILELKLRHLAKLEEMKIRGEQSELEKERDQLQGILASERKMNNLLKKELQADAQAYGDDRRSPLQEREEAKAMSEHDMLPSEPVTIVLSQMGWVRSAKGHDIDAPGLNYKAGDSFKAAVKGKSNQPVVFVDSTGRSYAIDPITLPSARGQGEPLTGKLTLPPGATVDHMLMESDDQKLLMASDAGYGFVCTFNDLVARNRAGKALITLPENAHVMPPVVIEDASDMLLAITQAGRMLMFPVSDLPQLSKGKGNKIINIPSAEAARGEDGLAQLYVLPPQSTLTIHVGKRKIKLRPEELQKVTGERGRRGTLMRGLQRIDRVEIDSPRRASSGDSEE
T2 sequence (P20083 whole entry, further chain): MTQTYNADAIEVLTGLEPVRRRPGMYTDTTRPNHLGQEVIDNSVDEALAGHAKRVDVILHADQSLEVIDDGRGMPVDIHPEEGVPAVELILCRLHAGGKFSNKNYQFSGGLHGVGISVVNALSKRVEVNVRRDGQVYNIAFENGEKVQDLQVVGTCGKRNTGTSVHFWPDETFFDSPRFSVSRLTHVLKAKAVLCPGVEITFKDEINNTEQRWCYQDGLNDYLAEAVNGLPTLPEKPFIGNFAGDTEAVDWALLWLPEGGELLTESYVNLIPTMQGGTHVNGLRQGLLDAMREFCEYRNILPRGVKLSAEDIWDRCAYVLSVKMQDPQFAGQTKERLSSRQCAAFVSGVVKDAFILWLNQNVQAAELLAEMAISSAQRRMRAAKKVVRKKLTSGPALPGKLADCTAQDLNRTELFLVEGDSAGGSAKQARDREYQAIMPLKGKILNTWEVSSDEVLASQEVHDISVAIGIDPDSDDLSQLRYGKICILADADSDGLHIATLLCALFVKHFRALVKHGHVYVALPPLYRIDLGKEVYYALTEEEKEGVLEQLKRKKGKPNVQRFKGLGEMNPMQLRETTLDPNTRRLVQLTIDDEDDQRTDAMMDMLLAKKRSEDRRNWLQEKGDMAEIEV
T1 sequence (Q2FYS5 whole entry): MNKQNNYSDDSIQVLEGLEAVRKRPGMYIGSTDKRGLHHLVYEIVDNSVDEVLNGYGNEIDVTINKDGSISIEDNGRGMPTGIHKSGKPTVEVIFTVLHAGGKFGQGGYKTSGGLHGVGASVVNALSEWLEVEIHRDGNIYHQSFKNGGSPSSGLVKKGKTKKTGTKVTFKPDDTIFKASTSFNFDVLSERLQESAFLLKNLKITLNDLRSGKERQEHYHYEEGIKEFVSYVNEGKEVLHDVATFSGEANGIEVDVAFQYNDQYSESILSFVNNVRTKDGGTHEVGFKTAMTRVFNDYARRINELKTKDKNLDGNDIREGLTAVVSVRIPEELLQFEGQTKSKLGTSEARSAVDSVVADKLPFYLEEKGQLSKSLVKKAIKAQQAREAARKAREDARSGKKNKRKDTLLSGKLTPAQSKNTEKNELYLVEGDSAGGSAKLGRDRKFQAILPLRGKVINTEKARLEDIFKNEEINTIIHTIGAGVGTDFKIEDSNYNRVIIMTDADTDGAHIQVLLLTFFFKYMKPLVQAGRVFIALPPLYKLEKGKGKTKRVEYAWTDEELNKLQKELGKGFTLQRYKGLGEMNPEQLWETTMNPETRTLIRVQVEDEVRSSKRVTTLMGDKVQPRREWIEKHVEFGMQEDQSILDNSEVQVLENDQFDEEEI
T1 sequence (Q2FYS4 whole entry): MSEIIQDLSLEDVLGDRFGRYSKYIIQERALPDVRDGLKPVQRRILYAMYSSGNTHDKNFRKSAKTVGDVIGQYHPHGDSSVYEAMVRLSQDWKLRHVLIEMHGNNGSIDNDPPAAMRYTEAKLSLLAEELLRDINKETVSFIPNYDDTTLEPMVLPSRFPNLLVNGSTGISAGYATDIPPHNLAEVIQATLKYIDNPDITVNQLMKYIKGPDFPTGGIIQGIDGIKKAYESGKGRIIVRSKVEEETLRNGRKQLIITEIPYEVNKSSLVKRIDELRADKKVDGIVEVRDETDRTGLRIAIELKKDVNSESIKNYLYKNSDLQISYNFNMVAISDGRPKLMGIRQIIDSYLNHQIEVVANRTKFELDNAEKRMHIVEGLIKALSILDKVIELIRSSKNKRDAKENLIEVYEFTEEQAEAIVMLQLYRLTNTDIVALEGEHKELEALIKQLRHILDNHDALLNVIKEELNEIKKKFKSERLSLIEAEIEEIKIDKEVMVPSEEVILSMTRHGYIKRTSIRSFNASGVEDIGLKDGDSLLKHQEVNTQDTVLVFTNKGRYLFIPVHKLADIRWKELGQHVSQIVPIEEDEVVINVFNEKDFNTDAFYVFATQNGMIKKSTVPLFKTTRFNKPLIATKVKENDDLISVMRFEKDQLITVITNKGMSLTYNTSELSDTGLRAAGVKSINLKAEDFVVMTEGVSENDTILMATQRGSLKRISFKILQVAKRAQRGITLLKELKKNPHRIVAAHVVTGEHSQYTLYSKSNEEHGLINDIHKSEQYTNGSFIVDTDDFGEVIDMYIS

Compound	IC50 (S. aureus Topo IV)	MIC (E. coli N43 (CGSC# 5583); [4])	MIC (E. coli N43 (CGSC# 5583); [5])	Papp at 4 h (PAMPA permeability; pH 7.4)	MIC (S. pneumoniae (QA-10/02))	IC50 (E. coli Topo IV)	MIC (M. avium; [6])	MIC (MRSA (QA-11.4); resistant to cefoxitin)	Papp at 4 h (PAMPA permeability)	MIC [1, 7]	MIC (E. coli (QA-11.8); [8])	MIC [2, 9]	MIC [3, 10]	LE Topo IV E. coli (E. coli Topo IV)	IC50 (E. coli Topo IV; [11])	other results
COc1ccc2nccc(CCN3CCC(NC(=O)c4cn5cccc(C#N)c5n4)CC3)c2n1 [Compound 7, 8-Cyano-N-(1-(2-(6-methoxy-1,5-naphthyridin-4-yl)ethyl)piperidin-4-yl)imidazo[1,2-a]pyridine-2-carboxamide]	> 100000 nM	281 µM	> 128 µg/mL	2.6 ×10⁻⁶ cm/s	128 µg/mL (≈ 281 µM)	> 100000 nM										MIC (M. avium; Mycobacterium avium, read-out: MIC M. avium): > 128 µg/mL; MIC (MRSA (QA-11.4)): > 128 µg/mL; PAMPA permeability classification [low/high] (PAMPA permeability): int erm ediat e; MIC ([1]; Salmonella, read-out: MIC S. alachua RDK 030c (QA-1482/04)): > 128 µg/mL; MIC (E. coli (QA-11.8); Escherichia coli, 20 h, read-out: MIC E. coli (QA-11.8)): > 128 µg/mL; MIC ([2]; Enterococcus faecalis, ATCC29212, read-out: MIC E. faecalis DRK 057 (ATCC 29212)): > 128 µg/mL; MIC ([3]; Streptococcus agalactiae, read-out: MIC S. agalactiae RDK 047 (QA-990/02)): > 128 µg/mL
COc1ccc2nccc(CCN3CCC(NCc4ccccc4)CC3)c2n1 [Compound 11]	> 100000 nM	21.2 µM	8 µg/mL	10.9 ×10⁻⁶ cm/s	2 µg/mL (≈ 5.31 µM)	2040 ± 200 nM	> 128 µg/mL	8 µg/mL (≈ 21.2 µM)	> 2.7 ×10⁻⁶ cm/s	> 128 µg/mL	64 µg/mL (≈ 170 µM)	16 µg/mL (≈ 42.5 µM)	16 µg/mL (≈ 42.5 µM)	0.28		
COc1ccc2nccc(CCN3CCC(NCc4ccc(F)cc4)CC3)c2n1 [Compound 12]	> 100000 nM	10.1 µM	4 µg/mL	12.1 ×10⁻⁶ cm/s	2 µg/mL (≈ 5.07 µM)	280 ± 30 nM	32 µg/mL (≈ 81.1 µM)	4 µg/mL (≈ 10.1 µM)	> 2.7 ×10⁻⁶ cm/s	128 µg/mL (≈ 324 µM)	16 µg/mL (≈ 40.6 µM)	8 µg/mL (≈ 20.3 µM)	8 µg/mL (≈ 20.3 µM)	0.31		
COc1ccc2nccc(CCN3CCC(NCc4ccc(Cl)cc4)CC3)c2n1 [Compound 13]		1.22 µM	0.5 µg/mL	13.2 ×10⁻⁶ cm/s	0.5 µg/mL (≈ 1.22 µM)		4 µg/mL (≈ 9.73 µM)	0.5 µg/mL (≈ 1.22 µM)	> 2.7 ×10⁻⁶ cm/s	32 µg/mL (≈ 77.9 µM)	2 µg/mL (≈ 4.87 µM)	1 µg/mL (≈ 2.43 µM)	1 µg/mL (≈ 2.43 µM)		31 nM	
COc1ccc2nccc(CCN3CCC(NCc4ccc(Br)cc4)CC3)c2n1 [Compound 14]		0.27 µM	0.125 µg/mL	31.5 ×10⁻⁶ cm/s	0.125 µg/mL (≈ 0.274 µM)		2 µg/mL (≈ 4.39 µM)		> 2.7 ×10⁻⁶ cm/s	16 µg/mL (≈ 35.1 µM)	1 µg/mL (≈ 2.2 µM)	1 µg/mL (≈ 2.2 µM)	0.5 µg/mL (≈ 1.1 µM)		42 ± 3 nM	MIC (MRSA (QA-11.4)): 0.125 µg/mL (≈ 0.274 µM)
COc1ccc2nccc(CCN3CCC(NCc4ccc(I)cc4)CC3)c2n1 [Compound 15]		0.16 µM	0.078 µg/mL	39.8 ×10⁻⁶ cm/s	0.015 µg/mL (≈ 0.0299 µM)		1 µg/mL (≈ 1.99 µM)	0.0625 µg/mL (≈ 0.124 µM)	> 2.7 ×10⁻⁶ cm/s	8 µg/mL (≈ 15.9 µM)	0.25 µg/mL (≈ 0.498 µM)	1 µg/mL (≈ 1.99 µM)	0.125 µg/mL (≈ 0.249 µM)		21 ± 1 nM	E. coli N43 MIC in molar (E. coli N43 (CGSC# 5583); E. coli CGSC# 5583, AcrA knockout strain): 0.16 µM; IC50 (HUVEC): ~20000 nM
COc1ccc2nccc(CCN3CCC(NCc4ccc(C(N)=O)cc4)CC3)c2n1 [Compound 17]	> 100000 nM	38.1 µM	16 µg/mL	0.31 ×10⁻⁶ cm/s	16 µg/mL (≈ 38.1 µM)	1150 ± 30 nM	128 µg/mL (≈ 305 µM)	8 µg/mL (≈ 19.1 µM)		> 128 µg/mL	> 128 µg/mL	128 µg/mL (≈ 305 µM)	> 128 µg/mL	0.26		PAMPA permeability classification [low/high] (PAMPA permeability): low
COc1ccc2nccc(CCN3CCC(NCc4ccc(N(C)C)cc4)CC3)c2n1 [Compound 18]	> 100000 nM	2.45 µM	1 µg/mL	16.7 ×10⁻⁶ cm/s	0.25 µg/mL (≈ 0.596 µM)	> 100000 nM	128 µg/mL (≈ 305 µM)	0.5 µg/mL (≈ 1.19 µM)	> 2.7 ×10⁻⁶ cm/s	128 µg/mL (≈ 305 µM)	8 µg/mL (≈ 19.1 µM)	1 µg/mL (≈ 2.38 µM)	0.25 µg/mL (≈ 0.596 µM)			
